≈ marks a conversion by molar mass, not a printed value.

This assay relates to Mycobacterium tuberculosis variant bovis. Nature of the assay: Antibacterial activity against Mycobacterium bovis BCG assessed as reduction in cell viability measured after 14 days by microdrop agar proportion test. Format: functional. The following applies: 336 h, time 14 day.

In the case of `COC(=O)c1ccc(C(=O)Oc2ccc3c(c2)OC(C)(C)C=C3C)cc1`, the MIC turned out to be 2 µg/mL (≈ 5.68 µM).

Source of the values: ChEMBL document CHEMBL5252530, “Biological importance of structurally diversified chromenes” (Eur J Med Chem, 2016).
